Test results as given in PMC6104039 (Nature Communications, 2018).

Tests used:
[1] = tested on: C57BL6/J mice; experiment: Food intake; details: mouse, in vivo
[2] = tested on: SkM; experiment: Western blotting of SkM (respiratory complex subunits, PGC-1α, AMPK, ACC); assay type: in vivo, mice
Procedure: Tissues were homogenized in RIPA buffer (100 mM NaCl, 10 mM Tris, pH 7.4, 1% Triton X-100, 0.5% sodium deoxycholate, 0.1% SDS, 1 mM EDTA, 10% Glycerol) containing complete protease inhibitor cocktail (Roche) and phosphatase inhibitors (3 mM β-glycerophosphate, 1 mM sodium orthovanadate, 5 mM sodium fluoride) by bead-beating in a Precellys 24 at 4 °C. Extracts were centrifuged at 6500 rpm for 10 min at 4 °C. Supernatant was collected and protein concentrations determined with the Bicinchoninic acid (BCA) assay (Thermo Scientific). Protein lysates (15 μg) were resolved on SDS-PAGE, transferred to polyvinylidene difluoride (PVDF) membrane, and immunoblotted with antibodies against Complex I subunit NADH dehydrogenase (#ab110242, Abcam), Complex II succinate dehydrogenase subunit B (#ab14714, Abcam), Complex III subunit Core 2 Ubiquinol-cytochrome c reductase (#ab14745, Abcam), Complex IV Cytochrome c oxidase (#11967S, Cell Signaling Technology), Complex V ATP synthase α subunit (#ab14748, Abcam), PGC1α (#AB3242, Merck Millipore), AMPKα (#2532S, Cell Signaling Technology), phospho- AMPKα (Thr172) (#2535S, Cell Signaling Technology), ACC (#3662S, Cell Signaling Technology), phospho-ACC (Ser 79, which also detects Ser 212 in ACC2, the predominant ACC isoform in SkM) (#3661S, Cell Signaling Technology) and pan 14-3-3 (#sc-629, Santa Cruz Biotechnology). All antibodies were used at a dilution of 1:1000. A common loading control was included on every gel to account for variation in relative band intensities between different blots. Antibody-antigen binding was detected using ECL Reagent (GE Healthcare) and imaged on a Fujifilm Las-4000 CCD camera. Bands were quantified by densitometry with Fuji ImageQuantTL software. Full images of blots in Fig. 6 are shown in Supplementary Figure 12.
Western blots for phospho-AMPK (Thr172), total AMPK, phospho-ACC (Ser79), and total
ACC in vehicle- or P053-treated mice on a chow or HFD. Denistometry for phospho-
AMPK/total AMPK and phospho-ACC/total ACC is shown (n = 10 mice per group).
(1 picture or pasted object on this page, not shown here)

[3] = tested on: liver; experiment: Mitochondrial markers in liver (Western blots, citrate synthase, βHAD); set-up: species or system mice; details: mouse, in vivo
Procedure: Tissues were homogenized in RIPA buffer (100 mM NaCl, 10 mM Tris, pH 7.4, 1% Triton X-100, 0.5% sodium deoxycholate, 0.1% SDS, 1 mM EDTA, 10% Glycerol) containing complete protease inhibitor cocktail (Roche) and phosphatase inhibitors (3 mM β-glycerophosphate, 1 mM sodium orthovanadate, 5 mM sodium fluoride) by bead-beating in a Precellys 24 at 4 °C. Extracts were centrifuged at 6500 rpm for 10 min at 4 °C. Supernatant was collected and protein concentrations determined with the Bicinchoninic acid (BCA) assay (Thermo Scientific). […] All antibodies were used at a dilution of 1:1000. A common loading control was included on every gel to account for variation in relative band intensities between different blots. Antibody-antigen binding was detected using ECL Reagent (GE Healthcare) and imaged on a Fujifilm Las-4000 CCD camera. Bands were quantified by densitometry with Fuji ImageQuantTL software.
Liver and tibialis muscle were homogenized 1:19 (w/v) in 50 mM Tris-HCl, 1 mM EDTA, 0.1% Triton X-100, pH 7.4. The homogenates were subjected to three freeze-thaw cycles and centrifuged for 10 min at 7000 × g at 4 °C. Supernatants were used to determine the activity of CS and βHAD[66].

[4] = target: T1, CerS1 (Homo sapiens, UniProt P27544); experiment: CerS1 activity as a function of substrate concentration (Vmax, Khalf, mode of inhibition); assay type: biochemical; set-up: expressed in transfected cells; details: dihydrosphingosine and C18:0-CoA substrates
T1 sequence (P27544 1-350): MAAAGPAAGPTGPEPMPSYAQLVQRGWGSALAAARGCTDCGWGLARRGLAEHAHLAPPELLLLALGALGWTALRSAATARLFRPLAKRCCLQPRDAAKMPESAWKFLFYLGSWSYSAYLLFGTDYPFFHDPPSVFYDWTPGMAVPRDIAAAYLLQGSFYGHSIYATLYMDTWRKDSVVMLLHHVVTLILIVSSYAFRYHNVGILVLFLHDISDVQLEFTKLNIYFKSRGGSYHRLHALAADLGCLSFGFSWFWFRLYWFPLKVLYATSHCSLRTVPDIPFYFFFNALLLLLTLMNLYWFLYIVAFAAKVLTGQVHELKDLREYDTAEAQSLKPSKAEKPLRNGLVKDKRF

[5] = tested on: cortical neuron cultures; experiment: Live-cell ceramide synthase assay: deuterated ceramide from D7-dihydrosphingosine; details: two hour pre-treatment
Procedure: Mouse cortical neurons were prepared from E16 pups[65] and seeded at 5 × 10^6 cells/well in poly-D-lysine coated six-well plates. Two weeks after seeding, neurons were pre-treated for 2 h with P053, then incubated for a further 1 h with 1 μM deuterated dihydrosphingosine (D7-dhSph). Lipid extraction and quantification of D7-ceramide using liquid chromatography-tandem mass spectrometry (LC-MS/MS)[34] is described below.
Targeted quantification of ceramide, HexCer, and SM species in primary neurons, HEK293 cells, mouse brain, and gastrocnemius muscle lipid extracts was performed by LC-MS/MS on a TSQ Access triple quadrupole mass spectrometer (Thermo Fisher Scientific)[69]. Lipids were separated on a 3 × 150 mm Agilent XDB-C8 column (5 μM pore size) with a 10 min isocratic chromatography run using methanol containing 0.2% formic acid as the mobile phase. Precursor ions were the precise [M + H] species for each lipid. […] Deuterated (D7) ceramides were detected as the corresponding m/z + 7 ions.

**Q.** `C[C@@](N)(CO)CCc1ccc(OCc2ccc(Cl)c(Cl)c2)cc1` [P053, (S)-2-amino-4-(4-(3,4-dichlorobenzyloxy)phenyl)-2-methylbutan-1-ol] was tested. Which food intake [1] did it give?
**A.** not due to any effect of P053 on food intake

**Q.** What about the “phosphorylation of AMPK or acetyl-CoA carboxylase (ACC)” value [2] of the same compound?
**A.** no effect

**Q.** What about the “protein expression of Pgc-1α” value [2] of the same compound?
**A.** significantly increased

**Q.** What about the “respiratory complexes at the protein level” value [2] of the same compound?
**A.** up-regulated

**Q.** And the “mitochondrial markers in liver” value [3]?
**A.** no increase

**Q.** And the mode of inhibition [4]?
**A.** non-competitive inhibitor

**Q.** And the “de novo C18:0 ceramide synthesis from deuterated dihydrosphingosine” value [5]?
**A.** dose-dependent inhibition
